Laboratory results published in EP0908457B1, “3-(1,2-benzisothiazol- and isoxazol-5-Y1)-2,4(1H,3H)-pyrimidinedione or thione and 3-(1,2-benzisothiazol- and isoxazol-5-y1)-4(3H)-pyrimidinone or thione herbicidal agents” (BASF AKTIENGESELLSCHAFT, priority 1997, dated 1999).

How the values were obtained:
[1] = tested on: Cyperus iria; assay: Preemergence weed control under flooded paddy conditions, CYPIR (Rice Flatsedge); format: in vivo; conditions: flooded paddy; for CYPIR herbicidal effect rating: preemergence, rated three to four weeks after treatment; for CYPIR: preemergence weeds, herbicidal effect rating 0-9, three to four weeks after treatment
[2] = tested on: Monochoria vaginalis, Presl.; assay: Preemergence weed control under flooded paddy conditions, MOOVA (Monochoria); format: in vivo; conditions: flooded paddy; for MOOVA herbicidal effect rating: preemergence, rated three to four weeks after treatment; for MOOVA: preemergence weeds, herbicidal effect rating 0-9, three to four weeks after treatment
[3] = tested on: Echinochloa oryzoides (Ard.) Fritsch.; assay: Postemergence weed control under flooded paddy conditions, ECHORC (Watergrass (Calif.)); format: in vivo; conditions: rated three to four weeks after treatment
[4] = tested on: Oryza sativa, (L.) Tebonnet; assay: Rice tolerance to post-transplant applications under flooded paddy conditions (Example 188), ORYSAT (Rice, Tebonnet); conditions: rated three to four weeks after treatment
[5] = tested on: Sagittaria pygmaea, L.; assay: Preemergence weed control under flooded paddy conditions, SAGPY (Arrowhead (Pygmaea)); format: in vivo; conditions: flooded paddy; for SAGPY herbicidal effect rating: preemergence, rated three to four weeks after treatment; for SAGPY: preemergence weeds, herbicidal effect rating 0-9, three to four weeks after treatment
[6] = tested on: Oryza sativa, (L.) Tebonnet; assay: Rice tolerance to post-transplant applications under flooded paddy conditions (Example 187), ORYSAT (Rice, Tebonnet); conditions: for ORYSAT herbicidal effect rating: rated three to four weeks after treatment; for ORYSAT: herbicidal effect rating 0-9, three to four weeks after treatment
[7] = tested on: Echinochloa oryzoides (Ard.) Fritsch.; assay: Preemergence weed control under flooded paddy conditions, ECHORC (Watergrass (Calif.)); format: in vivo; conditions: flooded paddy; for ECHORC herbicidal effect rating: preemergence, rated three to four weeks after treatment; for ECHORC: preemergence weeds, herbicidal effect rating 0-9, three to four weeks after treatment
[8] = tested on: Monochoria vaginalis, Presl.; assay: Postemergence weed control under flooded paddy conditions, MOOVA (Monochoria); format: in vivo; conditions: rated three to four weeks after treatment
[9] = tested on: Cyperus serotinus, Rottb.; assay: Preemergence weed control under flooded paddy conditions, CYPSE (Flatsedge); format: in vivo; conditions: for CYPSE herbicidal effect rating: preemergence, rated three to four weeks after treatment; for CYPSE: preemergence weeds, herbicidal effect rating 0-9, three to four weeks after treatment
[10] = tested on: Sagittaria pygmaea, L.; assay: Postemergence weed control under flooded paddy conditions, SAGPY (Arrowhead (Pygmaea)); format: in vivo; conditions: rated three to four weeks after treatment
[11] = tested on: Cyperus serotinus, Rottb.; assay: Postemergence weed control under flooded paddy conditions, CYPSE (Flatsedge); format: in vivo; conditions: rated three to four weeks after treatment
[12] = tested on: Cyperus iria; assay: Postemergence weed control under flooded paddy conditions, CYPIR (Rice Flatsedge); format: in vivo; conditions: rated three to four weeks after treatment

COC(=O)COc1ccc(C)cc1-c1noc2ccc(-n3c(=O)cc(C(F)(F)F)n(C)c3=O)c(Cl)c12 [Example 261, Acetic acid, {{2-{4-chloro-5-[3,6-dihydro-3-methyl-2,6-dioxo-4-(trifluoromethyl)-1(2H)-pyrimidinyl]-1,2-benzisoxazol-3-yl}-p-tolyl}oxy}-, methyl ester]
CYPIR herbicidal effect rating ([1]; Rate 0.0320 kg/ha): 4.0 | CYPIR herbicidal effect rating ([1]; Rate 0.0620 kg/ha): 4.5 | CYPIR herbicidal effect rating ([1]; Rate 0.1250 kg/ha): 5.5 | CYPIR herbicidal effect rating ([1]; Rate 0.2500 kg/ha): 2.0 | MOOVA herbicidal effect rating ([2]; Rate 0.0320 kg/ha): 4.5 | MOOVA herbicidal effect rating ([2]; Rate 0.0620 kg/ha): 4.5 | MOOVA herbicidal effect rating ([2]; Rate 0.1250 kg/ha): 6.0 | MOOVA herbicidal effect rating ([2]; Rate 0.2500 kg/ha): 3.0 | herbicidal effect rating, ECHORC ([3]; Rate 0.0320 kg/ha): 0.0 | herbicidal effect rating, ECHORC ([3]; Rate 0.0620 kg/ha): 0.0 | herbicidal effect rating, ECHORC ([3]; Rate 0.1250 kg/ha): 0.0 | herbicidal effect rating, ECHORC ([3]; Rate 0.2500 kg/ha): 0.0 | herbicidal effect rating, ORYSAT (rice tolerance) ([4]; Rate 0.0320 kg/ha): 0.0 | herbicidal effect rating, ORYSAT (rice tolerance) ([4]; Rate 0.0620 kg/ha): 0.0 | herbicidal effect rating, ORYSAT (rice tolerance) ([4]; Rate 0.1250 kg/ha): 0.0 | herbicidal effect rating, ORYSAT (rice tolerance) ([4]; Rate 0.2500 kg/ha): 0.0 | SAGPY herbicidal effect rating ([5]; Rate 0.0320 kg/ha): 0.0 | SAGPY herbicidal effect rating ([5]; Rate 0.0620 kg/ha): 0.0 | SAGPY herbicidal effect rating ([5]; Rate 0.1250 kg/ha): 0.0 | SAGPY herbicidal effect rating ([5]; Rate 0.2500 kg/ha): 0.0 | ORYSAT herbicidal effect rating ([6]; Rate 0.0320 kg/ha): 0.0 | ORYSAT herbicidal effect rating ([6]; Rate 0.0620 kg/ha): 0.0 | ORYSAT herbicidal effect rating ([6]; Rate 0.1250 kg/ha): 0.0 | ORYSAT herbicidal effect rating ([6]; Rate 0.2500 kg/ha): 0.0 | ECHORC herbicidal effect rating ([7]; Rate 0.0320 kg/ha): 2.5 | ECHORC herbicidal effect rating ([7]; Rate 0.0620 kg/ha): 2.0 | ECHORC herbicidal effect rating ([7]; Rate 0.1250 kg/ha): 2.0 | ECHORC herbicidal effect rating ([7]; Rate 0.2500 kg/ha): 0.0 | herbicidal effect rating, MOOVA ([8]; Rate 0.0320 kg/ha): 9.0 | herbicidal effect rating, MOOVA ([8]; Rate 0.0620 kg/ha): 9.0 | herbicidal effect rating, MOOVA ([8]; Rate 0.1250 kg/ha): 9.0 | herbicidal effect rating, MOOVA ([8]; Rate 0.2500 kg/ha): 9.0 | CYPSE herbicidal effect rating ([9]; Rate 0.0320 kg/ha): 4.5 | CYPSE herbicidal effect rating ([9]; Rate 0.0620 kg/ha): 4.5 | CYPSE herbicidal effect rating ([9]; Rate 0.1250 kg/ha): 4.5 | CYPSE herbicidal effect rating ([9]; Rate 0.2500 kg/ha): 0.0 | herbicidal effect rating, SAGPY ([10]; Rate 0.0320 kg/ha): 0.0 | herbicidal effect rating, SAGPY ([10]; Rate 0.0620 kg/ha): 0.0 | herbicidal effect rating, SAGPY ([10]; Rate 0.1250 kg/ha): 0.0 | herbicidal effect rating, SAGPY ([10]; Rate 0.2500 kg/ha): 0.0 | herbicidal effect rating, CYPSE ([11]; Rate 0.0320 kg/ha): 0.0 | herbicidal effect rating, CYPSE ([11]; Rate 0.0620 kg/ha): 0.0 | herbicidal effect rating, CYPSE ([11]; Rate 0.1250 kg/ha): 0.0 | herbicidal effect rating, CYPSE ([11]; Rate 0.2500 kg/ha): 0.0 | herbicidal effect rating, CYPIR ([12]; Rate 0.0320 kg/ha): 5.0 | herbicidal effect rating, CYPIR ([12]; Rate 0.0620 kg/ha): 6.0 | herbicidal effect rating, CYPIR ([12]; Rate 0.1250 kg/ha): 6.0 | herbicidal effect rating, CYPIR ([12]; Rate 0.2500 kg/ha): 6.0

CCC(C#N)(CC)c1nsc2ccc(-n3c(=O)cc(C(F)(F)F)n(C)c3=O)cc12 [Example 445, 1,2-Benzisothiazole-3-acetonitrile, 5-[3,6-dihydro-3-methyl-2,6-dioxo-4-(trifluoromethyl)-1(2H)-pyrimidinyl]-alpha,alpha-diethyl-]
CYPIR ([1]; 0.0320 kg/ha): 6.5 | CYPIR ([1]; 0.0620 kg/ha): 8.0 | CYPIR ([1]; 0.1250 kg/ha): 9.0 | CYPIR ([1]; 0.2500 kg/ha): 9.0 | MOOVA ([2]; 0.0320 kg/ha): 9.0 | MOOVA ([2]; 0.0620 kg/ha): 9.0 | MOOVA ([2]; 0.1250 kg/ha): 9.0 | MOOVA ([2]; 0.2500 kg/ha): 9.0 | herbicidal effect rating, ECHORC ([3]; Rate 0.0320 kg/ha): 4.0 | herbicidal effect rating, ECHORC ([3]; Rate 0.0620 kg/ha): 7.0 | herbicidal effect rating, ECHORC ([3]; Rate 0.1250 kg/ha): 9.0 | herbicidal effect rating, ECHORC ([3]; Rate 0.2500 kg/ha): 9.0 | herbicidal effect rating, ORYSAT (rice tolerance) ([4]; Rate 0.0320 kg/ha): 3.0 | herbicidal effect rating, ORYSAT (rice tolerance) ([4]; Rate 0.0620 kg/ha): 6.0 | herbicidal effect rating, ORYSAT (rice tolerance) ([4]; Rate 0.1250 kg/ha): 7.0 | herbicidal effect rating, ORYSAT (rice tolerance) ([4]; Rate 0.2500 kg/ha): 7.0 | SAGPY ([5]; 0.0320 kg/ha): 4.5 | SAGPY ([5]; 0.0620 kg/ha): 8.0 | SAGPY ([5]; 0.1250 kg/ha): 8.5 | SAGPY ([5]; 0.2500 kg/ha): 9.0 | ORYSAT ([6]; 0.0320 kg/ha): 5.0 | ORYSAT ([6]; 0.0620 kg/ha): 6.5 | ORYSAT ([6]; 0.1250 kg/ha): 7.0 | ORYSAT ([6]; 0.2500 kg/ha): 8.0 | ECHORC ([7]; 0.0320 kg/ha): 8.5 | ECHORC ([7]; 0.0620 kg/ha): 8.5 | ECHORC ([7]; 0.1250 kg/ha): 9.0 | ECHORC ([7]; 0.2500 kg/ha): 9.0 | herbicidal effect rating, MOOVA ([8]; Rate 0.0320 kg/ha): 0.0 | herbicidal effect rating, MOOVA ([8]; Rate 0.0620 kg/ha): 0.0 | herbicidal effect rating, MOOVA ([8]; Rate 0.1250 kg/ha): 2.0 | herbicidal effect rating, MOOVA ([8]; Rate 0.2500 kg/ha): 9.0 | CYPSE ([9]; 0.0320 kg/ha): 7.5 | CYPSE ([9]; 0.0620 kg/ha): 8.5 | CYPSE ([9]; 0.1250 kg/ha): 8.0 | CYPSE ([9]; 0.2500 kg/ha): 8.5 | herbicidal effect rating, SAGPY ([10]; Rate 0.0320 kg/ha): 0.0 | herbicidal effect rating, SAGPY ([10]; Rate 0.0620 kg/ha): 0.0 | herbicidal effect rating, SAGPY ([10]; Rate 0.1250 kg/ha): 4.0 | herbicidal effect rating, SAGPY ([10]; Rate 0.2500 kg/ha): 9.0 | herbicidal effect rating, CYPSE ([11]; Rate 0.0320 kg/ha): 0.0 | herbicidal effect rating, CYPSE ([11]; Rate 0.0620 kg/ha): 2.0 | herbicidal effect rating, CYPSE ([11]; Rate 0.1250 kg/ha): 4.0 | herbicidal effect rating, CYPSE ([11]; Rate 0.2500 kg/ha): 4.0 | herbicidal effect rating, CYPIR ([12]; Rate 0.0320 kg/ha): 4.0 | herbicidal effect rating, CYPIR ([12]; Rate 0.0620 kg/ha): 7.0 | herbicidal effect rating, CYPIR ([12]; Rate 0.1250 kg/ha): 9.0 | herbicidal effect rating, CYPIR ([12]; Rate 0.2500 kg/ha): 9.0
